How the values were obtained:
[1] = molecular target: Receptor-type tyrosine-protein kinase FLT3 (Homo sapiens, UniProt P36888); test: Inhibition of human FLT3 F594_R595insREY mutant by Hotspot assay
Homo sapiens = species on record: Homo sapiens; test: Selectivity ratio of IC50 for human FLT4 to IC50 for human FLT3
[2] = molecular target: T1, Receptor-type tyrosine-protein kinase FLT3 (Homo sapiens, UniProt P36888, ITD); test: Inhibition of human FLT3 ITD-W51 mutant by Hotspot assay
MV4-11 [3] = test: Induction of apoptosis in human MV4-11 cells assessed as live cells at 0.5 uM after 24 hrs by Annexin V-FITC/propidium iodide staining based flow cytometry (reference value: 100%); assay type: functional
[4] = Half life in human liver microsomes preincubated for 5 mins followed by NADPH addition by LC-MS/MS analysis; assay type: ADME, microsome
MV4-11 [5] = test: Induction of apoptosis in human MV4-11 cells assessed as early apoptotic cells at 0.5 uM after 24 hrs by Annexin V-FITC/propidium iodide staining based flow cytometry (reference value: 0%); assay type: functional
[6] = molecular target: CDK2 (cyclin-dependent kinase 2) (Homo sapiens, UniProt P24941); test: Inhibition of CDK2 (unknown origin) assessed as residual activity at 0.123 uM by Hotspot assay relative to control; settings: CDK2 enzyme (unknown origin), read-out: Activity
[7] = molecular target: T2, Receptor-type tyrosine-protein kinase FLT3 (Homo sapiens, UniProt P36888)
T2 sequence (P36888 whole entry): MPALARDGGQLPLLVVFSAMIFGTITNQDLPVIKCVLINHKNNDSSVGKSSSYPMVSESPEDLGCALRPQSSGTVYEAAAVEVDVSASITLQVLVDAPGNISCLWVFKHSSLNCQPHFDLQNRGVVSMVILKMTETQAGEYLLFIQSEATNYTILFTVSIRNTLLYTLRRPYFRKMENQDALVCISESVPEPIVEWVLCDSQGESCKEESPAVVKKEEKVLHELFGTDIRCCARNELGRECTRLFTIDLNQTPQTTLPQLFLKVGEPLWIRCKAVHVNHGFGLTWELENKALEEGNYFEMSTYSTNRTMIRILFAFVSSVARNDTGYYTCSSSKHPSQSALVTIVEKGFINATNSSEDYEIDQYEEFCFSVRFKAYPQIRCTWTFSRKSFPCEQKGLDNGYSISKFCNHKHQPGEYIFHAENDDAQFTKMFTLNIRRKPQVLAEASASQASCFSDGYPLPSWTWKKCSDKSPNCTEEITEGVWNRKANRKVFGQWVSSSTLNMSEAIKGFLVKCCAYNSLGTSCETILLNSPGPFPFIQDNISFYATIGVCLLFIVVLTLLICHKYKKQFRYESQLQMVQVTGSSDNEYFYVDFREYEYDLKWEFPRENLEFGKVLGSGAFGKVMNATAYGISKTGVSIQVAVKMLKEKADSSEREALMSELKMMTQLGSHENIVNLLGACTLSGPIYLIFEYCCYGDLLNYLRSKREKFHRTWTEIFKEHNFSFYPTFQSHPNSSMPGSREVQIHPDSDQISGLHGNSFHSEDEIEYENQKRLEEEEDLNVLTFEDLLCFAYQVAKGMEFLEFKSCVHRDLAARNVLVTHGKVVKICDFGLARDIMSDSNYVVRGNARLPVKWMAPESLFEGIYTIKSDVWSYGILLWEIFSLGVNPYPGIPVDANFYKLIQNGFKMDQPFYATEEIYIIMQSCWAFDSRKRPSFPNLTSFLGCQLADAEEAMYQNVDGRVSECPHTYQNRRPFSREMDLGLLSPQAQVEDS
Description: Inhibition of human FLT3 by Hotspot assay

HL-60 = test: Growth inhibition of human HL60 cells expressing low levels of FLT3 after 72 hrs by Cell-Titer Glo assay; assay type: functional, cell-based; settings: HL-60, 72 h
[8] = molecular target: T1, Receptor-type tyrosine-protein kinase FLT3; test: Inhibition of human FLT3 ITD-NPOS mutant by Hotspot assay
[9] = Intrinsic clearance in human liver microsomes preincubated for 5 mins followed by NADPH addition by LC-MS/MS analysis; assay type: ADME, microsome; settings: read-out: CLH

Work on `Cc1nc2c(c(Nc3c[nH]nc3C(=O)Nc3ccc(N4CCNCC4)cc3)n1)CCC2` yielded an IC50 [1] of 9.15 nM, a Ratio IC50 (Homo sapiens) of 120 and an IC50 [2] of 12.8 nM. It also gave an Activity (MV4-11 [3]) of 29%, a half-life [4] of 147 min and an Activity (MV4-11 [5]) of 60.4%. It also gave an activity at 0.123 µM [6] of 86.3%, an IC50 [7] of 0.19 to 0.21 nM and an IC50 (HL-60) of 26.7 µM. For the same compound, the IC50 [8] was 14.9 nM and the microsomal CLint [9] was 9.4 µL/min/mg.

From ChEMBL document CHEMBL4152300, “Discovery of the selective and efficacious inhibitors of FLT3 mutations” (Eur J Med Chem, 2018)
